Measured values taken from US20200069664A1, “METHODS FOR TREATING INFECTION” (Salix Pharmaceuticals, Ltd, priority 2010, published 2020).
“Also recorded” adds a separate entry of the source.

Experiments:
[1] = tested on: B. anthracis Sterne strain 7702; assay type: cell-based; settings: pretreated A549 cells, vs other treatment groups
ETEC strains = experiment: Isolate viability after rifaximin exposure, ETEC; assay type: cell-based, E coli
S sonnei isolate = experiment: Isolate viability after rifaximin exposure, S sonnei; assay type: cell-based
EAEC strains = experiment: HCT-8 cell culture assay for IL-8 release after infection with rifaximin-exposed EAEC; assay type: cell-based, E coli
Method: The human intestinal adenocarcinoma cell line, HCT-8, was used to study inflammatory modulators as previously published (Huang, 2004 #15). Monolayers of HCT-8 cells (ATCC CCL-244; American Type Culture Collection, Rockville, Md.) were grown in 24-well culture plates (Corning Costar, Corning, N.Y.) in an RPMI 1640 medium (Sigma-Aldrich Co, St Louis, Mo.) supplemented with 100 U/mL of penicillin, 100 μg/mL of streptomycin, and 0.25 μg/mL of amphotericin B. They were maintained in a medium supplemented with 10% fetal bovine serum (HyClone, Logan, Utah) and grown until approximately 4×10^5 cells/well confluence.
HCT-8 cells were infected with EAEC strains recovered from MacConkey agar in triplicate at a 100:1 ratio in an antibiotic- and serum-free RPMI 1640 medium. Cells were incubated for 3 hours in a humidified chamber at 37° C. in an atmosphere containing 5% CO2, after which supernatants were collected. The supernatant concentration of IL-8 in each well was determined by using a commercially available enzyme-linked immunosorbent assay kit for human IL-8 (R&D Systems, Minneapolis, Minn.). All samples were tested twice, and the average value was reported.

EAEC = experiment: MIC50 previously established for EAEC; assay type: cell-based, E. coli; settings: previously established in our laboratory
C difficile isolates = settings: 201 C difficile isolates, Canada, cited from earlier work

## (2S,16Z,18E,20S,21S ,22R, 23R,24R,255,265,275,28E)-5,6,21,23,25 Pentahydroxy-27-methoxy-2,4,11,16,20,22,24,26-octamethyl-2,7-(epoxypentadeca-(1,11,13) trienimino) benzofuro (4,5-e) pyrido(1,2,-a) benzimidazole-1,15(2H)-dione,25-acetate [Rifaximin]
[1]; gentamicin protection
  Internalization of B. anthracis: significant reductions
[1]
  Adherence of B. anthracis: significant reductions
ETEC strains; rifaximin 8 mg/L for 24 hours
  ETEC viability: viable
ETEC strains; rifaximin 64 mg/L for 18 hours
  ETEC viability: No ETEC isolates were viable; also recorded: not viable
ETEC strains; rifaximin 8, 32, and 64 mg/L for 4 and 8 hours
  ETEC viability: viable
ETEC strains; rifaximin 8 and 32 mg/L for 18 hours
  ETEC viability: viable
ETEC strains; rifaximin 32 and 64 mg/L for 24 hours
  ETEC viability: No ETEC isolates were viable; also recorded: not viable
S sonnei isolate; rifaximin 8 mg/L for 4, 8, 18, and 24 hours
  S sonnei viability: viable
S sonnei isolate; rifaximin 32 or 64 mg/L at any time point examined
  S sonnei viability: not viable
EAEC strains; all other time points and rifaximin concentrations
  IL-8 production from HCT-8 cells elicited by rifaximin-exposed EAEC: either undetected following HCT-8 infection with EAEC strains, or EAEC strains were not viable
EAEC strains; rifaximin 64 mg/L for 4 hours
  IL-8 production from HCT-8 cells elicited by rifaximin-exposed EAEC: caused IL-8 production
EAEC strains; rifaximin 8 or 32 mg/L for 4 or 8 hours
  IL-8 production from HCT-8 cells elicited by rifaximin-exposed EAEC: elicited production of IL-8
EAEC strains; viable isolates, rifaximin 8, 32, or 64 mg/L for 18 hours or 8 mg/L for 24 hours
  IL-8 production from HCT-8 cells elicited by rifaximin-exposed EAEC: did not elicit IL-8 production
EAEC
  MIC50 for EAEC: 64 µg/mL
C difficile isolates; 1992 to 2007
  MIC50: 0.008 µg/mL
  MIC90: 0.015 µg/mL
C difficile isolates
  Isolates with MIC values >2 μg/mL: 4%
